Measurements taken from publication PMC9549030, “Structural basis for specific inhibition of the deubiquitinase UCHL1” (Nature Communications, 2022).
Values joined by “and” are separate entries in the source; they are usually repeats but may differ in a detail not shown here. Equal entries are not always repeated. Where two headings read alike, the source gives them in different places.

What was measured:
UCHL1 [1] = target: T1, UCHL1 (Homo sapiens, UniProt P09936); assay: Identification of probe-labeled proteins with mass spectrometry (pulldown enrichment); details: HEK293 cells, 24 h
T1 sequence (P09936 1-223): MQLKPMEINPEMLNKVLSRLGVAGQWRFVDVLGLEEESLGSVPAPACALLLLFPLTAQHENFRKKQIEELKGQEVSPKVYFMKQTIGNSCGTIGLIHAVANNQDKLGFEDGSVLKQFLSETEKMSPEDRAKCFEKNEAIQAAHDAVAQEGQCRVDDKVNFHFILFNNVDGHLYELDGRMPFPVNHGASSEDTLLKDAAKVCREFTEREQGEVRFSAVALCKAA
Procedure: Cells were cultured, treated with a compound, and lysed as described above. The cell lysate was diluted to a protein concentration of 2 mg/mL with ABP lysis buffer. 1 µL of each click reagent (see above) were added to each sample, followed by an incubation period of one hour at room temperature with protection from light. The sample volume was adjusted to 1000 µL with PBS and 30 µL of a NeutrAvidin (Thermo Fisher) bead slurry (prewashed 3x with PBS) were added to each sample. The samples were incubated for one hour to overnight on a rotator at 15 rpm at 4 °C. Beads were pelleted by centrifugation, the supernatant was discarded, and the beads were washed six times (1x with ½x lysis buffer, followed by five washes with PBS). After removing the washing solution completely, the beads were subjected to reduction with dithiothreitol (1 mM), alkylation with chloroacetamide (5 mM) and on-bead digestion with first LysC (Serva Biotech, 1 h, 37 °C), followed by trypsin (Sigma Aldrich, 1 h, overnight). Tryptic peptides were desalted with C18 StageTips and analyzed by nano-HPLC-MS/MS.
An Ultimate 3000 RSLC nano-HPLC system and a Hybrid-Orbitrap mass spectrometer (Q Exactive Plus) equipped with a nano-spray source (Thermo Fisher Scientific) was used. The protein fragments were enriched on a C18 PepMap 100 column (5 μm, 100 Å, 300 μm ID * 5 mm, Dionex) using 0.1% TFA, at a flow rate of 30 μL/min, for 5 min and separated on a C18 PepMap 100 column (3 μm, 100 Å, 75 μm ID × 50 cm) using a linear gradient (5–30% ACN/H2O + 0.1% formic acid over 90 min) with a flow rate of 300 nL/min. […] Signals in the mass range of m/z 300 to 1650 were acquired at a resolution of 70,000 for the full scan, followed by ten high-energy collision-dissociation (HCD) MS/MS scans of the most intense at least doubly charged ions at a resolution of 17,500. Proteins were relatively quantified by using MaxQuant[60] v.2.0.3.1, including the Andromeda search algorithm and searching the Homo sapiens reference proteome of the UniProt database. Briefly, an MS/MS ion search was performed for enzymatic trypsin cleavage, allowing two missed cleavages. Carbamidomethylation was set as a fixed protein modification, and oxidation of methionine and acetylation of the N-terminus were set as variable modifications. The mass accuracy was set to 20 parts per million (ppm) for the first search and to 4.5 ppm for the second search. The false discovery rates for peptide and protein identification were set to 0.01. Only proteins for which at least two peptides were quantified were chosen for further validation. Relative quantification of proteins was performed by using the label-free quantification algorithm implemented in MaxQuant. Statistical data analysis of pulldown samples was performed using Perseus[61] v.1.6.15.0, including proteins which were identified in at least four of the five biological replicates which were used per condition. Label-free quantification (LFQ) intensities were log-transformed (log2); replicate samples were grouped together. Pairwise comparisons of groups were performed separately. Missing values were imputed using small normally distributed values (width 0.3, downshift 1.8) and a two-sided t-test (s0 = 5, FDR = 0.001) was performed.

UCHL1 [2] = target: T1, UCHL1; assay: Ub-Rhodamine (Ubiquitin rhodamine cleavage) assay; assay type: biochemical; details: for normalized UCHL1 activity: independent experiments
HEK293 cells [3] = assay: Cellular activity-based protein profiling (in-gel fluorescence); assay type: cell-based, human; details: 0.1 and 1 µM; 24 h
Procedure: Cells (7 × 10^5) were seeded in six-well plates and cultivated for 48 h. Cells were then incubated in fresh DMEM supplemented with compound or DMSO for 24 h. The cells were washed with ice-cold PBS and harvested in 200 µL ABP lysis buffer as described above. […] Samples were separated by SDS-PAGE and analyzed for fluorescent protein-compound conjugates as described above.

UCHL3 L168F = target: T2, UCHL3 L168F (Homo sapiens, UniProt P15374, L168F); assay: Ub-Rhodamine (Ubiquitin rhodamine cleavage) assay; assay type: biochemical
T2 sequence (P15374 1-230 L168F): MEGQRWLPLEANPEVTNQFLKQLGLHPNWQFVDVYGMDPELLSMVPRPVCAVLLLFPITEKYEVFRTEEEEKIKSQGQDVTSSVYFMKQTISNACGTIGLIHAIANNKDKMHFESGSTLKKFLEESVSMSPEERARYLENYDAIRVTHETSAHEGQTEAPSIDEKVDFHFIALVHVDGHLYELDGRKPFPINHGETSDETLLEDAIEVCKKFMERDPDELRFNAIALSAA

HEK293 cells [4] = assay: Cell growth and viability assay (confluency, propidium iodide); assay type: cell-based, human; details: up to 5 µM, up to 72 h
Procedure: (§1) HEK293 cells (5 × 10^3/well) or U-87 MG cells (5.5 × 10^3/well) were seeded into 96-well dishes. The following day cells were treated with the compounds at varying concentrations and propidium iodide at 20 µg/mL. The plates were immediately transferred to the Incucyte S3. Bright-field and red fluorescent images were automatically captured at 1 or 2 h intervals for 72 h with 10x magnification. The confluency of cells and the number of PI-positive cells was determined using the Incucyte masking program.

U-87 MG cells = assay: as above; assay type: cell-based, human; details: up to 5 µM, up to 72 h
Procedure: as §1

UCHL1 in U-87 MG cells = tested on: T3, UCHL1 in U-87 MG cells; assay: Cellular Ub-probe (HA-Ub-VS) competition, inhibition of cellular UCHL1; assay type: cell-based, human; details: 1 or 24 h
T3 construct: Western blot analysis of endogenous UCHL1 labeled with HA-Ub-VS after treatment of U-87 MG cells; endogenous in cells; host or cells: U-87 MG
Procedure: (§2) Proteins were transferred to a polyvinylidene fluoride (PVDF, only experiments in Fig. 4e and Supplementary Fig. 7e, f) or nitrocellulose (all other experiments) membrane using a Trans-Blot Turbo system (Bio-Rad, 1.3 A, 25 V, 10 min). The membranes were blocked with 5% (m/v) nonfat milk in PBS-T buffer and incubated with indicated primary antibodies (anti-UCHL1, 1:1000, Cell Signaling, D3T2E; anti-PARK7, 1:1000, Cell Signaling, D29E5; anti-Tubulin, 1:4000, Sigma, T6199; anti-Hemagglutinin, 1:1000, BioLegend, 16B12; anti-flag, 1:2000, Sigma, F3165; anti-Ubiquitin, 1:1000, Cell Signaling, P4D1; anti-Ubiquitin, 1:300, Santa Cruz, P4D1, sc-8017; anti-UCHL3, 1:1000, Proteintech, 12384-1-AP) overnight. Then the membranes were incubated with the respective secondary antibody (anti-mouse,1:5000, Sigma, NXA931; anti-rabbit, 1:5000, Sigma, GENA934) coupled to horseradish peroxidase. The chemiluminescent reaction was initiated using a Clarity Western ECL substrate (Bio-Rad) and images were taken on a ChemiDoc MP Imaging System (Bio-Rad).
(§3) The total protein concentration was adjusted to 2 mg/ml by diluting each sample with ABP lysis buffer. A final concentration of 1 µM HA-Ub-VS probe was added, followed by incubation for 30 min at 37 °C. The labeling reaction was quenched by the addition of 4x LDS sample buffer. The samples were separated via SDS-PAGE and further analyzed via western blotting as described above.

UCHL1 in HEK293 cells = tested on: T4, UCHL1 in HEK293 cells; assay: as above; assay type: cell-based, human; details: HEK293 cells
T4 construct: Western blot analysis of endogenous UCHL1 labeled with HA-Ub-VS after treatment of HEK293 cells; endogenous in cells; host or cells: HEK293
Procedure: as §2, §3

[5] = 1 h, read-out: UCHL1 activity, data point mean

`C#CCCCNC(=O)c1ccc(-n2cnc(NC(=O)[C@H]3CCN(C#N)C3)c2)cc1` [GK13S] was tested, and the “change in log2 enrichment values of UCHL1, GK13S vs GK13R” value (UCHL1 [1]; 1 µM) was 2, the “change in log2 enrichment values of UCHL1, GK13S vs GK16S” value (UCHL1 [1]; 1 µM) was 5 and the “difference in UCHL1 enrichment, GK13S vs GK13R” value (UCHL1 [1]; 1 µM) was “fourfold”. For the same compound, the “difference in UCHL1 enrichment, GK13S vs GK16S” value (UCHL1 [1]; 1 µM) was over 32 fold, the “enrichment factor of UCHL1 (log2, vs DMSO)” value (UCHL1 [1]; 1 µM) was 8 and > 8 and the “enrichment of UCHL1 vs DMSO” value (UCHL1 [1]; 5 µM) was ~ 3000 fold. For the same compound, the “logarithmic enrichment factor of UCHL1 (log2, vs DMSO)” value (UCHL1 [1]; 5 µM) was 11.5, the remaining activity at 0.000610352 µM (UCHL1 [2]; [5]) was 98.8% and the remaining activity at 0.0012207 µM (UCHL1 [2]; [5]) was 96.5%. The remaining activity at 0.00244141 µM (UCHL1 [2]; [5]) was 95%, the remaining activity at 0.00488281 µM (UCHL1 [2]; [5]) was 91.2% and the remaining activity at 0.00976562 µM (UCHL1 [2]; [5]) was 85.3%. It also gave a remaining activity at 0.0195312 µM (UCHL1 [2]; [5]) of 76.8%, a remaining activity at 0.0390625 µM (UCHL1 [2]; [5]) of 65.7% and a remaining activity at 0.078125 µM (UCHL1 [2]; [5]) of 44.1%. The remaining activity at 0.15625 µM (UCHL1 [2]; [5]) was 23.2%, the remaining activity at 0.3125 µM (UCHL1 [2]; [5]) was 8.06% and the remaining activity at 0.625 µM (UCHL1 [2]; [5]) was 3.5%. The remaining activity at 1.25 µM (UCHL1 [2]; [5]) was 2.31%, the remaining activity at 2.5 µM (UCHL1 [2]; [5]) was 3.03% and the remaining activity at 5 µM (UCHL1 [2]; [5]) was 1.18%. For the same compound, the remaining activity at 10 µM (UCHL1 [2]; [5]) was 0.488%, the IC50 (UCHL1 [2]; 1 h preincubation, mean ± SD of independent experiments, read-out: IC50 (UCHL1)) was 0.05 µM and the IC50 (UCHL1 [2]; Fig. 6b, catalytic domain, 1 h preincubation with GK13S, read-out: IC50 (UCHL1)) was 0.087 ± 0.008 µM. For the same compound, the “normalized UCHL1 activity” value (UCHL1 [2]; GK13S 0.610352 nM, 1 h preincubation) was 0.9506 and 0.9879 and 1.014 and 0.9975 and 0.9955, the “normalized UCHL1 activity” value (UCHL1 [2]; GK13S 1.2207 nM, 1 h preincubation) was 0.9497 and 0.9646 and 1.019 and 1.0024 and 0.9988 and the “normalized UCHL1 activity” value (UCHL1 [2]; GK13S 2.44141 nM, 1 h preincubation) was 0.9185 and 0.9495 and 1.017 and 0.9974 and 0.9924. The “normalized UCHL1 activity” value (UCHL1 [2]; GK13S 4.88281 nM, 1 h preincubation) was 0.8798 and 0.9115 and 1.0474 and 0.9893 and 0.9704, the “normalized UCHL1 activity” value (UCHL1 [2]; GK13S 9.76562 nM, 1 h preincubation) was 0.8185 and 0.8529 and 0.9722 and 1.013 and 0.9579 and the “normalized UCHL1 activity” value (UCHL1 [2]; GK13S 19.5312 nM, 1 h preincubation) was 0.7093 and 0.7679 and 0.9238 and 0.9667 and 0.9242. The “normalized UCHL1 activity” value (UCHL1 [2]; GK13S 39.0625 nM, 1 h preincubation) was 0.5709 and 0.6568 and 0.8808 and 0.9371 and 0.8799, the IC50 (UCHL1 [2]; source data Fig. 3b, 1 h preincubation, read-out: Averaged IC50s from independent experiments (single experiments)) was 0.036 µM and 0.065 µM and 0.049 µM and the “labeling of endogenous proteins in intact cells” value (HEK293 cells [3]) was “strong signal for a band of ~30 kDa”. For the same compound, the IC50 (UCHL3 L168F) was 33 ± 11 µM, the “growth arrest and apoptosis” value (HEK293 cells [4]) was “neither GK13S nor GK16S showed growth arrest nor apoptosis” and the “toxicity (cell growth and viability)” value (U-87 MG cells) was “nontoxic”. The “inhibition of cellular UCHL1” value (UCHL1 in U-87 MG cells) was “complete inhibition”, the “inhibition of cellular UCHL1” value (UCHL1 in HEK293 cells; 1 µM, 24 h) was “near complete inhibition” and the “inhibition of cellular UCHL1” value (UCHL1 in HEK293 cells; 5 µM, 24 h) was “Full inhibition”. The “inhibition of cellular UCHL1” value (UCHL1 in HEK293 cells; 1 and 5 µM, 1 h and 24 h (Supplementary Fig. 5f)) was “time- and concentration-dependent inhibition”.
